The conditions of series [1]: 2 g/day oral dose; IC90 against SARS-CoV-2.
A further series deals with SARS-CoV. Conditions: cited from earlier work.
For series [2] the following is noted: asthmatic mice, niclosamide in corn oil, I.P. injection; cited from earlier work.
Another series deals with T1, TMEM16A (Homo sapiens, UniProt Q5XXA6).
T1 sequence (Q5XXA6 1-986): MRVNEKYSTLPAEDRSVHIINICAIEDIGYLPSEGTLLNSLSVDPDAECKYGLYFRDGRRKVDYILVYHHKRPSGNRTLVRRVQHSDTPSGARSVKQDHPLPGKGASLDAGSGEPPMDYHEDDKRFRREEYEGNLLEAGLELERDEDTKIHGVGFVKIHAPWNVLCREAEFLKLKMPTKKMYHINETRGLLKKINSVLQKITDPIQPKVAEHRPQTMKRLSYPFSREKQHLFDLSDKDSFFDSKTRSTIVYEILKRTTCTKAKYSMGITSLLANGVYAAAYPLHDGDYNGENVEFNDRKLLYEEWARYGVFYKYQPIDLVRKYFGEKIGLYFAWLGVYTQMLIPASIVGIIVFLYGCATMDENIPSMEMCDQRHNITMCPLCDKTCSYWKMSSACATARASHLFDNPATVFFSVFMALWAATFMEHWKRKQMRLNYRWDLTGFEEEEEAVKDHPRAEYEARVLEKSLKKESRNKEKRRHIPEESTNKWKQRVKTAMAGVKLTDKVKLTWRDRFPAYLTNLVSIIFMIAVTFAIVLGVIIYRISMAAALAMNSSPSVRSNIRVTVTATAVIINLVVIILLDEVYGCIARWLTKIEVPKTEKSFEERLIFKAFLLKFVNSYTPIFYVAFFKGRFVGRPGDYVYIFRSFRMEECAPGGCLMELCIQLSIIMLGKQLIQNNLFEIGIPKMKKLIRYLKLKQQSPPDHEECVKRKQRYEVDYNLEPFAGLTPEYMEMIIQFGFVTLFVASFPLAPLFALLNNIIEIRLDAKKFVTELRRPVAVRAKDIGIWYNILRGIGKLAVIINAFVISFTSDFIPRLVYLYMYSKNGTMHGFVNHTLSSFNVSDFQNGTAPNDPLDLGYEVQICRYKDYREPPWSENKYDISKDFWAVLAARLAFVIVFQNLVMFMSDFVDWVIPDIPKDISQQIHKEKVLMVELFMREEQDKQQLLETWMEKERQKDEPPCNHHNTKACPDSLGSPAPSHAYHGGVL
Conditions: cited from earlier work.

Another series has as its target T2, TMEM16F (Homo sapiens, UniProt Q4KMQ2).
T2 sequence (Q4KMQ2 1-910): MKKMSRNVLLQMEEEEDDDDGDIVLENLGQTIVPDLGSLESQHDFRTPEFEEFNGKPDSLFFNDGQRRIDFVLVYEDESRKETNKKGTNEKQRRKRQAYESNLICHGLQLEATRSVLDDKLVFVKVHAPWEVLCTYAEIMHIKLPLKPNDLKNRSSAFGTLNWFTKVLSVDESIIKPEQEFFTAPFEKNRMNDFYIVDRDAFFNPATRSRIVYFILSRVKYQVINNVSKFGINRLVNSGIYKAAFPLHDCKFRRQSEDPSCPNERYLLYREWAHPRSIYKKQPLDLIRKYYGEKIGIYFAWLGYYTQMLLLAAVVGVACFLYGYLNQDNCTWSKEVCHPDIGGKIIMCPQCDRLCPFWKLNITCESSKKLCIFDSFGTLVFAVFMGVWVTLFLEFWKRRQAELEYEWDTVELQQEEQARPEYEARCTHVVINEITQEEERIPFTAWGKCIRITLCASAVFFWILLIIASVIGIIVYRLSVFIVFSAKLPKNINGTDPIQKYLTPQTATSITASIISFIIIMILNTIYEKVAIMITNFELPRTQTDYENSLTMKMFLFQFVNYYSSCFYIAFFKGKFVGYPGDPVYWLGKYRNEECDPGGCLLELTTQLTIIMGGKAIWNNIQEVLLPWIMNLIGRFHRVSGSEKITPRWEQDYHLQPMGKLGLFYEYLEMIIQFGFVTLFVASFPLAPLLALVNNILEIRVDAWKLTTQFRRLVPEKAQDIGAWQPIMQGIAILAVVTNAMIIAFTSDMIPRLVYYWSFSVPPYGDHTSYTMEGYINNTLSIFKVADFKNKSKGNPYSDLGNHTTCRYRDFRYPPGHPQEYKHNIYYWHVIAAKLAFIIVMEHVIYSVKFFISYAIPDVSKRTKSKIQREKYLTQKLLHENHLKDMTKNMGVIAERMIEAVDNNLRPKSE
Conditions: cited from earlier work.

A further series has as its system all targeted strains. The experiment in a line: Minimum Inhibitory Concentration (MIC) assay, all strains. Conditions: read-out: MIC against all targeted strains.
The test system of the next series is SARS-CoV-2. Description: Inhibition of SARS-CoV-2 replication in Caco-2 cells. Format: cell-based. Conditions: Severe acute respiratory syndrome coronavirus 2.
Another series has as its system SARS-CoV-2 D614 strain. Description: microbe, parasite or virus in culture. It counts as cell-based. The note with it: Severe acute respiratory syndrome coronavirus 2; VeroE6 TMPRSS2 cells; read-out: EC50 against D614 strain.
Series [3] has as its system SARS-CoV-2 B.1.1.7 strain. Description: microbe, parasite or virus in culture. It counts as cell-based. The note with it: Severe acute respiratory syndrome coronavirus 2; VeroE6 TMPRSS2 cells; read-out: EC50 against B.1.1.7 strain.
For series [4], the system named is SARS-CoV-2 B 1.351 strain. The experiment in a line: microbe, parasite or virus in culture. It counts as cell-based. The note with it: Severe acute respiratory syndrome coronavirus 2; VeroE6 TMPRSS2 cells; read-out: EC50 against B 1.351 strain.
The conditions of series [5]: human, in vivo.
Another series can be described thus: clinical. The note with it: human, in vivo.
The nature of series [6]: in vitro. The note with it: African green monkey.
The nature of series [7]: in vitro. Conditions: human.

What is called MIC is the lowest concentration that inhibits growth of the organism. What is called EC50 is the concentration needed to bring the measured effect to its halfway point. For orientation: AUC(0-t) means the area under the concentration-time curve up to a stated or last time point. Usually Cmax stands for the peak of the concentration-time curve.

As for `O=C(Nc1ccc([N+](=O)[O-])cc1Cl)c1cc(Cl)ccc1O` [niclosamide, 5-chloro-N-(2-chloro-4-nitrophenyl)-2-hydroxybenzamide], the “efficacy margin, mean systemic exposure of human oral dose to IC90” value in [1] is recorded as 8 fold. In the series on SARS-CoV, the “concentration at which viral antigen synthesis was totally abolished” value was 1.56 μm and the “concentration suppressing cytopathic effect (CPE), as low as” value was 1 μm. For the same compound, the “effect on mucus production and secretion and bronchoconstriction” value in series [2] is “reduced mucus production and secretion, as well as bronchoconstriction”. Moreover, the “inhibition of TMEM16A” value at TMEM16A is on record as “potent inhibitor”. Further, on TMEM16F, the “inhibition of TMEM16F” value is “potent inhibitor”. The MIC in the series on all targeted strains is not above 0.5 µg/mL.
As for `O=C(Nc1ccc([N+](=O)[O-])cc1Cl)c1cc(Cl)ccc1O` [niclosamide ethanolamine], the EC50 amounted to 80 nM with SARS-CoV-2, 130 nM in the series with SARS-CoV-2 D614 strain, 80 nM in [3] and 70 nM in series [4]. The “peak concentrations in blood (range)” value in [5] lay within 29 to 506 ng/mL. Also, in “clinical”, the AUC(0-t) worked out at 509 ng·h/mL. Also, the Cmax in the series “clinical” (maximum plasma concentration (Cmax), mean) was 239 ng/mL. The CC50 in “in vitro [6]” and in “in vitro [7]” was more than 10000 nM throughout.

The values above are taken from patent US20230147683A1, “TREATMENT” (UNION Therapeutics A/S, priority 2020, published 2023).
